Columns and labels:
[1] = In vivo pharmacokinetics after iv administration in AMI rats; conditions: plasma concentration–time profile
AMI rats = test system: AMI rats; parameters: species or system Sprague Dawley rats; conditions: rat, in vivo, 50 mg/kg
[2] = test system: PC cells (primary cardiac cells); assay: In vitro cytotoxicity, MTT bioassay; type: cell-based, Wistar rats; conditions: 1–200 μM, 24 h

Compound: Cc1coc2c1C(=O)C(=O)c1c-2ccc2c1CCCC2(C)C [Free TN, tanshinone IIA]
- time within which cleared from the circulation [1]: ≤ 6 h
- infarct size (percentage of whole size of the left ventricle) (AMI rats): 51%±1.8%
- in vitro cytotoxicity (in words) [2]: obvious higher cytotoxicity than the nanocarriers in high concentrations (100 and 200 μM)
